Legend:
Format in all cases: in vivo
[1] = system: Lolium multiflorum Lamk; assay: Pot experiment, soil treatment, control of Lolium multiflorum Lamk (fresh weight, Colby); conditions: mixtures: both AIs at these rates, after 35 days
Protocol: (§1) Referring to an article of Colby, S. R. i.e., Calculation of the synergistic and antagonistic response of herbicide combinations.
(§2) E0-E value is calculated to evaluate the combined effect of pyroxasulfone and the second herbicide selected from the group consisting of fluorochloridone, aclonifen, diflufenican and terbutryn on the selected weeds.
(§3) In this Example, the herbicidal activity of treatments by a mixture of pyroxasulfone and the second herbicide selected from the group consisting of fluorochloridone, aclonifen, diflufenican and terbutryn for controlling Aegilops tauschii was investigated by a pot experiment. This Example was carried out in accordance with “NY/T 1155.4-2006 Guidelines for Indoor Bioassay Tests of Pesticides, Herbicides Part 4: Activity Determination Tests, Stem and Leaf Spray Method”. • Source of the agrochemicals tested were: • Pyroxasulfone: pyroxasulfone (850g/Kg, WG) from Adama Agan LTD. • Fluorochloridone: fluorochloridone (250 g/L, EC) from Adama Agan LTD. • Aclonifen: aclonifen (600 g/L, SC) from Adama Agan LTD. • Diflufenican: diflufenican (50g/Kg, WP) from Bayer. • Terbutryn: terbutryn (50g/Kg, SC) from Zhejiang Zhongshan Chemical Industry Group Co., Ltd. • Cultivation of test materials: The test soil was formed by mixing the 20 cm layer loam on the ground surface and the culture medium in a ratio of 3:1 as cultivation soil. Weeds were cultivated in an artificial climate chamber. The daytime and nighttime temperatures were set at 22° C. and 19° C., respectively, and the illumination was set at daytime: dark time 12h: 12h.
(§4) A certain amount of Aegilops tauschii seeds were sown in a plastic pot with a diameter of 9 cm, covering with 1-2 mm soil, and putting them in an enamel dish filled with water. The bottom infiltration method was used to water them, the agrochemicals tested in this Example were applied on the second day after sowing Aegilops tauschii seeds.
(§5) Spraying treatment: ASS-4 automatic control spraying system with a fan-shaped nozzle was used indoors to spray the agrochemicals, the running speed was adjusted based on nozzle pressure, flow rate, etc. to spray 50 mL of liquid of agrochemicals on the actual spray area of 1.1 m2 (equivalent to 30 liters per mu), arranging the plastic pots to be processed on the spraying table evenly, and spraying evenly. The spraying pressure was 0.35 MPa, and the flow rate of the fan-shaped nozzle was 800 mL/min, spraying in order from low dosage to high dosage. Each treatment was repeated 3 times. After spraying, the plastic pots were dried for one day, placed in an artificial climate chamber, and watered regularly to keep moist.
(§6) Weed investigation method and time: after applying the agrochemicals, the symptoms of weed damage (such as growth inhibition, chlorosis, deformity, etc.) were recorded in detail. After 35 days, the fresh weight of aerial part of the weeds in each treatment was weighed, and the measured fresh weight inhibition rate and the measured fresh weight survival rate for each treatment were calculated according to the following equations: […]
Example 2 was conducted in substantially the same way as Example 1, except that Lolium multiflorum Lamk was used instead of Aegilops tauschii.

[2] = system: Aegilops tauschii; assay: Pot experiment, soil treatment, control of Aegilops tauschii (fresh weight, Colby); conditions: mixtures: both AIs at these rates, after 35 days
From the text: as §1
E0 is the theoretical fresh weight survival rate for the mixture of pyroxasulfone and the second herbicide selected from the group consisting of fluorochloridone, aclonifen, diflufenican and terbutryn;
X is the measured fresh weight survival rate for pyroxasulfone used alone at the same dosage as that in the mixture;
Y is the measured fresh weight survival rate for the second herbicide selected from the group consisting of fluorochloridone, aclonifen, diflufenican and terbutryn used alone at the same dosage as that in the mixture;
E is the measured fresh weight survival rate for the mixture of pyroxasulfone and the second herbicide selected from the group consisting of fluorochloridone, aclonifen, diflufenican and terbutryn.
as §2, §3, §4, §5, §6

[3] = system: Bromus japonicus; assay: Pot experiment, soil treatment, control of Bromus japonicus (fresh weight, Colby); conditions: mixtures: both AIs at these rates, after 35 days
Protocol: as §1, §2, §3, §4, §5, §6
Example 3 was conducted in substantially the same way as Example 1, except that Bromus japonicus was used instead of Aegilops tauschii.

[4] = system: Solanum nigrum; assay: Pot experiment (glass greenhouse), soil treatment, control of Solanum nigrum (fresh weight, Colby)
Protocol: as §1, §2, §3, §4, §5, §6
Example 6 was substantially conducted in the same as Example 1, except that (1) Solanum nigrum was used instead of Aegilops tauschii, (2) in “Cultivation of test materials” part, Solanum nigrum was cultivated in a glass greenhouse instead of an artificial climate chamber at a temperature of 25 to 33° C. with a natural illumination, and (3) in “Spraying treatment” part, after spraying and drying, the plastic pots were placed in a glass greenhouse instead of an artificial climate chamber.

[5] = system: Lithospermum arvense; assay: Pot experiment, soil treatment, control of Lithospermum arvense (fresh weight, Colby)
Protocol: as §1, §2, §3, §4, §5, §6
Example 5 was conducted substantially the same way as Example 1, except that Lithospermum arvense was used instead of Aegilops tauschii.

[6] = system: Galium aparine; assay: Pot experiment, soil treatment, control of Galium aparine (fresh weight, Colby)
Protocol: as §1, §2, §3, §4, §5, §6
Example 4 was conducted substantially the same way as Example 1, except that Galium aparine was used instead of Aegilops tauschii.

[7] = g ai/ha: pyroxasulfone 11.25, fluorochloridone 31.25, aclonifen 150, diflufenican 14.0625, terbutryn 140.625
[8] = g ai/ha: pyroxasulfone 22.5, fluorochloridone 62.5, aclonifen 300, diflufenican 28.125, terbutryn 281.25
[9] = g ai/ha: pyroxasulfone 45, fluorochloridone 125, aclonifen 600, diflufenican 56.25, terbutryn 562.5
[10] = g ai/ha: pyroxasulfone 90, fluorochloridone 250, aclonifen 1200, diflufenican 112.5, terbutryn 1125
[11] = g ai/ha: pyroxasulfone 180, fluorochloridone 500, aclonifen 2400, diflufenican 225, terbutryn 2250
[12] = g ai/ha: pyroxasulfone 360, fluorochloridone 1000, aclonifen 4800, diflufenican 450, terbutryn 4500

Substance: 3-chloro-4-(chloromethyl)-1-(3-(trifluoromethyl)phenyl)-2-pyrrolidione [fluorochloridone]
- Measured fresh weight inhibition rate (%) [1, 7]: 93.2%
- Measured fresh weight survival rate (%) - E [1, 7]: 6.8%
- Measured fresh weight inhibition rate (%) [1, 8]: 96.4%
- Measured fresh weight survival rate (%) - E [1, 8]: 3.6%
- Measured fresh weight inhibition rate (%) [1, 9]: 98.4%
- Measured fresh weight survival rate (%) - E [1, 9]: 1.6%
- Measured fresh weight inhibition rate (%) [1, 10]: 100.0%
- Measured fresh weight survival rate (%) - E [1, 10]: 0.0%
- Measured fresh weight inhibition rate (%) [1, 11]: 100.0%
- Measured fresh weight survival rate (%) - E [1, 11]: 0.0%
- Measured fresh weight inhibition rate (%) [1, 12]: 100.0%
- Measured fresh weight survival rate (%) - E [1, 12]: 0.0%
- Measured fresh weight inhibition rate (%) [2, 7]: 0.0%
- Measured fresh weight survival rate (%) - E [2, 7]: 100.0%
- Measured fresh weight inhibition rate (%) [2, 8]: 7.9%
- Measured fresh weight survival rate (%) - E [2, 8]: 92.1%
- Measured fresh weight inhibition rate (%) [2, 9]: 11.0%
- Measured fresh weight survival rate (%) - E [2, 9]: 89.0%
- Measured fresh weight inhibition rate (%) [2, 10]: 49.4%
- Measured fresh weight survival rate (%) - E [2, 10]: 50.6%
- Measured fresh weight inhibition rate (%) [2, 11]: 79.3%
- Measured fresh weight survival rate (%) - E [2, 11]: 20.7%
- Measured fresh weight inhibition rate (%) [2, 12]: 93.9%
- Measured fresh weight survival rate (%) - E [2, 12]: 6.1%
- Measured fresh weight inhibition rate (%) [3, 7]: 94.8%
- Measured fresh weight survival rate (%) - E [3, 7]: 5.2%
- Measured fresh weight inhibition rate (%) [3, 8]: 96.9%
- Measured fresh weight survival rate (%) - E [3, 8]: 3.1%
- Measured fresh weight inhibition rate (%) [3, 9]: 100.0%
- Measured fresh weight survival rate (%) - E [3, 9]: 0.0%
- Measured fresh weight inhibition rate (%) [3, 10]: 100.0%
- Measured fresh weight survival rate (%) - E [3, 10]: 0.0%
- Measured fresh weight inhibition rate (%) [3, 11]: 100.0%
- Measured fresh weight survival rate (%) - E [3, 11]: 0.0%
- Measured fresh weight inhibition rate (%) ([4]; 31.25 g ai/ha): 18.8%
- Measured fresh weight survival rate (%) - E ([4]; 31.25 g ai/ha): 81.2%
- Measured fresh weight inhibition rate (%) ([4]; 62.5 g ai/ha): 32.5%
- Measured fresh weight survival rate (%) - E ([4]; 62.5 g ai/ha): 67.5%
- Measured fresh weight inhibition rate (%) ([4]; 125 g ai/ha): 67.1%
- Measured fresh weight survival rate (%) - E ([4]; 125 g ai/ha): 32.9%
- Measured fresh weight inhibition rate (%) ([4]; 250 g ai/ha): 99.6%
- Measured fresh weight survival rate (%) - E ([4]; 250 g ai/ha): 0.4%
- Measured fresh weight inhibition rate (%) ([4]; 500 g ai/ha): 100.0%
- Measured fresh weight survival rate (%) - E ([4]; 500 g ai/ha): 0.0%
- Measured fresh weight inhibition rate (%) ([5]; 31.25 g ai/ha): 47.8%
- Measured fresh weight survival rate (%) - E ([5]; 31.25 g ai/ha): 52.2%
- Measured fresh weight inhibition rate (%) ([5]; 62.5 g ai/ha): 97.1%
- Measured fresh weight survival rate (%) - E ([5]; 62.5 g ai/ha): 2.9%
- Measured fresh weight inhibition rate (%) ([5]; 125 g ai/ha): 98.6%
- Measured fresh weight survival rate (%) - E ([5]; 125 g ai/ha): 1.4%
- Measured fresh weight inhibition rate (%) ([5]; 250 g ai/ha): 100.0%
- Measured fresh weight survival rate (%) - E ([5]; 250 g ai/ha): 0.0%
- Measured fresh weight inhibition rate (%) ([5]; 500 g ai/ha): 100.0%
- Measured fresh weight survival rate (%) - E ([5]; 500 g ai/ha): 0.0%
- Measured fresh weight inhibition rate (%) ([6]; 31.25 g ai/ha): 63.0%
- Measured fresh weight survival rate (%) - E ([6]; 31.25 g ai/ha): 37.0%
- Measured fresh weight inhibition rate (%) ([6]; 62.5 g ai/ha): 84.9%
- Measured fresh weight survival rate (%) - E ([6]; 62.5 g ai/ha): 15.1%
- Measured fresh weight inhibition rate (%) ([6]; 125 g ai/ha): 93.2%
- Measured fresh weight survival rate (%) - E ([6]; 125 g ai/ha): 6.8%
- Measured fresh weight inhibition rate (%) ([6]; 250 g ai/ha): 95.9%
- Measured fresh weight survival rate (%) - E ([6]; 250 g ai/ha): 4.1%
- Measured fresh weight inhibition rate (%) ([6]; 500 g ai/ha): 100.0%
- Measured fresh weight survival rate (%) - E ([6]; 500 g ai/ha): 0.0%

Source: patent US20260013504A1, “HERBICIDAL MIXTURE, HERBICIDAL COMPOSITION, METHOD, USE, AND KITS FOR CONTROLLING UNDESIRABLE VEGETATION” (ADAMA AGAN LTD., priority 2022, published 2026)
